This series can be described thus: Au(I)-catalysed intramolecular Trp C2-H alkynylation: peptide-EBX (4-ethynylbenzoyl bis-CF3-benziodoxole on Lys side chain or N-terminus) + AuCl·Me2S, open flask. As to conditions: HFIP, 5.0 mM, 25.0 °C, 0.17 h.

Take `CC(=O)N[C@H]1CCCCNC(=O)c2ccc(cc2)C#Cc2[nH]c3ccccc3c2C[C@@H](C(=O)O)NC(=O)[C@H](Cc2ccccc2)NC(=O)[C@H](C)NC(=O)[C@H](Cc2c[nH]cn2)NC1=O` [Ac-K(EBX)-H-A-F-W-OH]: the ring closure, isolated yield (from CC(=O)N[C@@H](CCCCNC(=O)c1ccc(C#CI2OC(C(F)(F)F)(C(F)(F)F)c3ccccc32)cc1)C(=O)N[C@@H](Cc1c[nH]cn1)C(=O)N[C@@H](C)C(=O)N[C@@H](Cc1ccccc1)C(=O)N[C@@H](Cc1c[nH]c2ccccc12)C(=O)O, 28-membered ring) is 30%.

Take `CC(=O)N[C@@H](CCC(=O)O)C(=O)N[C@H](C(=O)N[C@@H](Cc1ccccc1)C(=O)N[C@H]1CCCCNC(=O)c2ccc(cc2)C#Cc2[nH]c3ccccc3c2C[C@@H](C(=O)N[C@@H](C)C(=O)N[C@@H](CC(C)C)C(=O)N[C@@H](CC(C)C)C(=O)N[C@@H](Cc2c[nH]c3ccccc23)C(N)=O)NC(=O)[C@H](CC(C)C)NC(=O)[C@H](CC(=O)O)NC1=O)[C@@H](C)O` [Ac-E-T-F-K(EBX)-D-L-W-A-L-L-W-NH2]: under “from CC(=O)N[C@@H](CCC(=O)O)C(=O)N[C@H](C(=O)N[C@@H](Cc1ccccc1)C(=O)N[C@@H](CCCCNC(=O)c1ccc(C#CI2OC(C(F)(F)F)(C(F)(F)F)c3ccccc32)cc1)C(=O)N[C@@H](CC(=O)O)C(=O)N[C@@H](CC(C)C)C(=O)N[C@@H](Cc1c[nH]c2ccccc12)C(=O)N[C@@H](C)C(=O)N[C@@H](CC(C)C)C(=O)N[C@@H](CC(C)C)C(=O)N[C@@H](Cc1c[nH]c2ccccc12)C(N)=O)[C@@H](C)O, 25-membered ring”, the ring closure, isolated yield is 37%.

On to `CC(=O)N[C@H]1CCCCNC(=O)c2ccc(cc2)C#Cc2[nH]c3ccccc3c2C[C@@H](C(=O)O)NC(=O)[C@H](Cc2ccccc2)NC(=O)[C@H](C)NC(=O)[C@H](CC(C)C)NC1=O` [Ac-K(EBX)-L-A-F-W-OH], for which the ring closure, isolated yield (from CC(=O)N[C@@H](CCCCNC(=O)c1ccc(C#CI2OC(C(F)(F)F)(C(F)(F)F)c3ccccc32)cc1)C(=O)N[C@@H](CC(C)C)C(=O)N[C@@H](C)C(=O)N[C@@H](Cc1ccccc1)C(=O)N[C@@H](Cc1c[nH]c2ccccc12)C(=O)O, 28-membered ring) was 56%.

As to `CC(=O)N[C@H]1CCCCNC(=O)c2ccc(cc2)C#Cc2[nH]c3ccccc3c2C[C@@H](C(=O)O)NC(=O)[C@H](Cc2ccccc2)NC(=O)[C@H](C)NC(=O)[C@H](CCCNC(=N)N)NC1=O` [Ac-K(EBX)-R-A-F-W-OH], the ring closure, isolated yield (from CC(=O)N[C@@H](CCCCNC(=O)c1ccc(C#CI2OC(C(F)(F)F)(C(F)(F)F)c3ccccc32)cc1)C(=O)N[C@@H](CCCNC(=N)N)C(=O)N[C@@H](C)C(=O)N[C@@H](Cc1ccccc1)C(=O)N[C@@H](Cc1c[nH]c2ccccc12)C(=O)O, 28-membered ring) was 42%.

For the compound `CC(=O)N[C@H]1CCCCNC(=O)c2ccc(cc2)C#Cc2[nH]c3ccccc3c2C[C@@H](C(=O)O)NC(=O)[C@H](Cc2ccccc2)NC(=O)[C@H](C)NC(=O)[C@H](Cc2ccc(O)cc2)NC1=O` [Ac-K(EBX)-Y-A-F-W-OH], the ring closure, isolated yield (from CC(=O)N[C@@H](CCCCNC(=O)c1ccc(C#CI2OC(C(F)(F)F)(C(F)(F)F)c3ccccc32)cc1)C(=O)N[C@@H](Cc1ccc(O)cc1)C(=O)N[C@@H](C)C(=O)N[C@@H](Cc1ccccc1)C(=O)N[C@@H](Cc1c[nH]c2ccccc12)C(=O)O, 28-membered ring) is 53%.

On to `CC(=O)N[C@H]1CCCCNC(=O)c2ccc(cc2)C#Cc2c(c3ccccc3n2C)C[C@@H](C(=O)O)NC(=O)[C@H](Cc2ccccc2)NC(=O)[C@H](C)NC(=O)[C@H](CC(C)C)NC1=O` [Ac-K(EBX)-L-A-F-W(1-Me)-OH], for which the ring closure, isolated yield (from CC(=O)N[C@@H](CCCCNC(=O)c1ccc(C#CI2OC(C(F)(F)F)(C(F)(F)F)c3ccccc32)cc1)C(=O)N[C@@H](CC(C)C)C(=O)N[C@@H](C)C(=O)N[C@@H](Cc1ccccc1)C(=O)N[C@@H](Cc1cn(C)c2ccccc12)C(=O)O, 28-membered ring) was found to be 63%.

Consider `CC(=O)N[C@H]1CCCCNC(=O)c2ccc(cc2)C#Cc2[nH]c3ccccc3c2C[C@@H](C(=O)O)NC(=O)[C@H](Cc2ccccc2)NC(=O)[C@H](C)NC(=O)[C@H](CC(=O)O)NC1=O` [Ac-K(EBX)-D-A-F-W-OH], for which the ring closure, isolated yield (from CC(=O)N[C@@H](CCCCNC(=O)c1ccc(C#CI2OC(C(F)(F)F)(C(F)(F)F)c3ccccc32)cc1)C(=O)N[C@@H](CC(=O)O)C(=O)N[C@@H](C)C(=O)N[C@@H](Cc1ccccc1)C(=O)N[C@@H](Cc1c[nH]c2ccccc12)C(=O)O, 28-membered ring) was 51%.

Take `CSCC[C@@H]1NC(=O)[C@@H](NC(C)=O)CCCCNC(=O)c2ccc(cc2)C#Cc2[nH]c3ccccc3c2C[C@@H](C(=O)O)NC(=O)[C@H](Cc2ccccc2)NC(=O)[C@H](C)NC1=O` [Ac-K(EBX)-M-A-F-W-OH]: where the note is “from CSCC[C@H](NC(=O)[C@H](CCCCNC(=O)c1ccc(C#CI2OC(C(F)(F)F)(C(F)(F)F)c3ccccc32)cc1)NC(C)=O)C(=O)N[C@@H](C)C(=O)N[C@@H](Cc1ccccc1)C(=O)N[C@@H](Cc1c[nH]c2ccccc12)C(=O)O, 28-membered ring”, the ring closure, isolated yield was 0%.

For `N=C(N)NCCC[C@@H]1NC(=O)[C@H](CCCNC(=N)N)NC(=O)[C@H](CCCNC(=N)N)NC(=O)[C@H](CCCNC(=N)N)NC(=O)[C@H](Cc2ccc3ccccc3c2)NC(=O)[C@H](Cc2ccccc2)NC(=O)c2ccc(cc2)C#Cc2[nH]c3ccccc3c2C[C@@H](C(N)=O)NC1=O` [EBX-F-Nal(2)-R-R-R-R-W-NH2], under “from N=C(N)NCCC[C@H](NC(=O)[C@H](CCCNC(=N)N)NC(=O)[C@H](CCCNC(=N)N)NC(=O)[C@H](CCCNC(=N)N)NC(=O)[C@H](Cc1ccc2ccccc2c1)NC(=O)[C@H](Cc1ccccc1)NC(=O)c1ccc(C#CI2OC(C(F)(F)F)(C(F)(F)F)c3ccccc32)cc1)C(=O)N[C@@H](Cc1c[nH]c2ccccc12)C(N)=O, 30-membered ring”, the ring closure, isolated yield is 57%.

As for `CC(=O)N[C@H]1CCCCNC(=O)c2ccc(cc2)C#Cc2[nH]c3ccccc3c2C[C@@H](C(=O)O)NC(=O)[C@H](Cc2ccccc2)NC(=O)[C@H](C)NC(=O)[C@H](CC(N)=O)NC1=O` [Ac-K(EBX)-N-A-F-W-OH], the ring closure, isolated yield (from CC(=O)N[C@@H](CCCCNC(=O)c1ccc(C#CI2OC(C(F)(F)F)(C(F)(F)F)c3ccccc32)cc1)C(=O)N[C@@H](CC(N)=O)C(=O)N[C@@H](C)C(=O)N[C@@H](Cc1ccccc1)C(=O)N[C@@H](Cc1c[nH]c2ccccc12)C(=O)O, 28-membered ring) worked out at 52%.

For the origin of these results see article PMC10722513.
